These results are taken from PubChem BioAssay AID1259407 (Chemical Carcinogenesis Research Information System (CCRIS), 2018).

The subject of the series is CCRIS mutagenicity, Ames/micronucleus/aberration tests. As to the kind of experiment: CCRIS mutagenicity studies.

The source made the active and inactive calls. How the calls were made is not given here.

In the case of `CC(C)O`, the mutagenic call (Test System: AMES SALMONELLA TYPHIMURIUM, Strain/Indicator: TA97, Metabolic Activation: HAMSTER, LIVER, S-9, AROCLOR 1254 (10 OR 30%), Method: PREINCUBATION) is “inactive; negative”; the mutagenic call (Test System: AMES SALMONELLA TYPHIMURIUM, Strain/Indicator: TA97, Metabolic Activation: NONE, Method: PREINCUBATION) is “inactive; negative”; the mutagenic call (Test System: AMES SALMONELLA TYPHIMURIUM, Strain/Indicator: TA97, Metabolic Activation: RAT, LIVER, S-9, AROCLOR 1254 (10 OR 30%), Method: PREINCUBATION) was “inactive; negative”; the mutagenic call (Test System: AMES SALMONELLA TYPHIMURIUM, Strain/Indicator: TA98, Metabolic Activation: HAMSTER, LIVER, S-9, AROCLOR 1254 (10 OR 30%), Method: PREINCUBATION) was “inactive; negative”; the mutagenic call (Test System: AMES SALMONELLA TYPHIMURIUM, Strain/Indicator: TA98, Metabolic Activation: NONE, Method: PREINCUBATION) was “inactive; negative”; the mutagenic call (Test System: AMES SALMONELLA TYPHIMURIUM, Strain/Indicator: TA98, Metabolic Activation: RAT, LIVER, S-9, AROCLOR 1254 (10 OR 30%), Method: PREINCUBATION) is “inactive; negative”. For the same compound, the mutagenic call by setting is: (Test System: AMES SALMONELLA TYPHIMURIUM, Strain/Indicator: TA98, Metabolic Activation: RAT, LIVER, S-9, KC 500, Method: PREINCUBATION) “inactive; negative”; (Test System: AMES SALMONELLA TYPHIMURIUM, Strain/Indicator: TA98, Metabolic Activation: RAT, LIVER, S-9, PHENOBARBITAL AND BETA-NAPHTHOFLAVONE, Method: PREINCUBATION) “inactive; negative”; (Test System: AMES SALMONELLA TYPHIMURIUM, Strain/Indicator: TA100, Metabolic Activation: HAMSTER, LIVER, S-9, AROCLOR 1254 (10 OR 30%), Method: PREINCUBATION) “inactive; negative”; (Test System: AMES SALMONELLA TYPHIMURIUM, Strain/Indicator: TA100, Metabolic Activation: NONE, Method: PREINCUBATION) “inactive; negative”; (Test System: AMES SALMONELLA TYPHIMURIUM, Strain/Indicator: TA100, Metabolic Activation: RAT, LIVER, S-9, AROCLOR 1254 (10 OR 30%), Method: PREINCUBATION) “inactive; negative”; (Test System: AMES SALMONELLA TYPHIMURIUM, Strain/Indicator: TA100, Metabolic Activation: RAT, LIVER, S-9, KC 500, Method: PREINCUBATION) “inactive; negative”. In addition, the mutagenic call is, setting by setting: (Test System: AMES SALMONELLA TYPHIMURIUM, Strain/Indicator: TA100, Metabolic Activation: RAT, LIVER, S-9, PHENOBARBITAL AND BETA-NAPHTHOFLAVONE, Method: PREINCUBATION) “inactive; negative”; (Test System: AMES SALMONELLA TYPHIMURIUM, Strain/Indicator: TA102, Metabolic Activation: NONE, Method: PREINCUBATION) “inactive; negative”; (Test System: AMES SALMONELLA TYPHIMURIUM, Strain/Indicator: TA102, Metabolic Activation: RAT, LIVER, S-9, PHENOBARBITAL AND BETA-NAPHTHOFLAVONE, Method: PREINCUBATION) “inactive; negative”; (Test System: AMES SALMONELLA TYPHIMURIUM, Strain/Indicator: TA104, Metabolic Activation: NONE, Method: PREINCUBATION) “inactive; negative”; (Test System: AMES SALMONELLA TYPHIMURIUM, Strain/Indicator: TA104, Metabolic Activation: RAT, LIVER, S-9, PHENOBARBITAL AND BETA-NAPHTHOFLAVONE, Method: PREINCUBATION) “inactive; negative”; (Test System: AMES SALMONELLA TYPHIMURIUM, Strain/Indicator: TA1535, Metabolic Activation: HAMSTER, LIVER, S-9, AROCLOR 1254 (10 OR 30%), Method: PREINCUBATION) “inactive; negative”. For the same compound, the mutagenic call is “inactive; negative” (Test System: AMES SALMONELLA TYPHIMURIUM, Strain/Indicator: TA1535, Metabolic Activation: NONE, Method: PREINCUBATION); “inactive; negative” (Test System: AMES SALMONELLA TYPHIMURIUM, Strain/Indicator: TA1535, Metabolic Activation: RAT, LIVER, S-9, AROCLOR 1254 (10 OR 30%), Method: PREINCUBATION); “inactive; negative” (Test System: AMES SALMONELLA TYPHIMURIUM, Strain/Indicator: TA1535, Metabolic Activation: RAT, LIVER, S-9, KC 500, Method: PREINCUBATION); “inactive; negative” (Test System: AMES SALMONELLA TYPHIMURIUM, Strain/Indicator: TA1535, Metabolic Activation: RAT, LIVER, S-9, PHENOBARBITAL AND BETA-NAPHTHOFLAVONE, Method: PREINCUBATION); “inactive; negative” (Test System: AMES SALMONELLA TYPHIMURIUM, Strain/Indicator: TA1537, Metabolic Activation: HAMSTER, LIVER, S-9, AROCLOR 1254 (30%), Method: PREINCUBATION); “inactive; negative” (Test System: AMES SALMONELLA TYPHIMURIUM, Strain/Indicator: TA1537, Metabolic Activation: NONE, Method: PREINCUBATION). Also, the mutagenic call is “inactive; negative” (Test System: AMES SALMONELLA TYPHIMURIUM, Strain/Indicator: TA1537, Metabolic Activation: RAT, LIVER, S-9, AROCLOR 1254 (30%), Method: PREINCUBATION); “inactive; negative” (Test System: AMES SALMONELLA TYPHIMURIUM, Strain/Indicator: TA1537, Metabolic Activation: RAT, LIVER, S-9, KC 500, Method: PREINCUBATION); “inactive; negative” (Test System: AMES SALMONELLA TYPHIMURIUM, Strain/Indicator: TA1537, Metabolic Activation: RAT, LIVER, S-9, PHENOBARBITAL AND BETA-NAPHTHOFLAVONE, Method: PREINCUBATION); “inactive; negative” (Test System: AMES SALMONELLA TYPHIMURIUM, Strain/Indicator: TA1538, Metabolic Activation: NONE, Method: PREINCUBATION); “inactive; negative” (Test System: AMES SALMONELLA TYPHIMURIUM, Strain/Indicator: TA1538, Metabolic Activation: RAT, LIVER, S-9, KC 500, Method: PREINCUBATION); “inactive; negative” (Test System: CHINESE HAMSTER OVARY, Strain/Indicator: CHO-K1-BH4 (HGPRT), Metabolic Activation: NONE). Moreover, the mutagenic call is “inactive; negative” (Test System: CHINESE HAMSTER OVARY, Strain/Indicator: CHO-K1-BH4 (HGPRT), Metabolic Activation: RAT, LIVER, S-9, AROCLOR 1254); “inactive; negative” (Test System: E. COLI, Strain/Indicator: WP2UVRA/PKM101, Metabolic Activation: NONE, Method: PREINCUBATION); “inactive; negative” (Test System: E. COLI, Strain/Indicator: WP2UVRA/PKM101, Metabolic Activation: RAT, LIVER, S-9, PHENOBARBITAL AND BETA-NAPHTHOFLAVONE, Method: PREINCUBATION); “inactive; negative” (Test System: E. COLI, Strain/Indicator: WP2 UVRA, Metabolic Activation: NONE, Method: PREINCUBATION); “inactive; negative” (Test System: E. COLI, Strain/Indicator: WP2UVRA, Metabolic Activation: NONE, Method: PREINCUBATION); “inactive; negative” (Test System: E. COLI, Strain/Indicator: WP2 UVRA, Metabolic Activation: RAT, LIVER, S-9, KC 500, Method: PREINCUBATION). In addition, the mutagenic call (Test System: E. COLI, Strain/Indicator: WP2UVRA, Metabolic Activation: RAT, LIVER, S-9, PHENOBARBITAL AND BETA-NAPHTHOFLAVONE, Method: PREINCUBATION) is “inactive; negative”.

With `CCCCOc1cc(Cl)ccc1C(=O)NOC(C)=O`, the mutagenic call was “active; positive” (Test System: AMES SALMONELLA TYPHIMURIUM, Strain/Indicator: TA100, Metabolic Activation: NONE, Method: STANDARD PLATE) and “active; positive” (Test System: AMES SALMONELLA TYPHIMURIUM, Strain/Indicator: TA100, Metabolic Activation: RAT, S-9, AROCLOR, Method: STANDARD PLATE).
